Data on one substance can be found in patent US12624068B2, “Exon skipping by peptide nucleic acid derivatives” (OliPass Corporation, priority 2016, dated 2026).

In one data set the test system is mdx mice. Nature of the data set: Histopathology by H&E staining of skeletal muscle in mdx mice. The format is in vivo, mouse. The text has this:
[Histopathology by H&E Staining] Muscular inflammation and degeneration are the hallmark of DMD symptoms. Skeletal muscle samples were subjected to histopathology evaluation by H&E staining. FIG. 43 provides a representative set of H&E staining images for the triceps by group and sampling time point.

For a further data set, the system named is serum myoglobin. Nature of the data set: Serum myoglobin level in mdx mice. Format: in vivo. The settings on record: DMD-ASO 1 50 pmole/Kg, DMD-ASO 2 or DMD-ASO 6 10 pmole/Kg, 2× per week, Week 66. The procedure: [Terminal Sacrifice] In Week 48, the animals were subjected to terminal sacrifice for blood sampling. The blood samples were analyzed for the serum level of CK (Creatine Kinase Activity Assay Kit, Cat. Number ab155901, Abcam) and myoglobin (Myoglobin ELISA Kit, Cat. Number ab210965, Abcam) to assess the degree of muscle degradation according to the manufacturer's instructions. Muscle tissues were analyzed by western blot for the full-length dystrophin.
[Terminal Sacrifice] All the survived animals were sacrificed for blood sampling in Week 66 post the grouping. The blood samples were subjected to ELISA assays for serum creatine kinase (CK) and serum myoglobin as described in “DMD Example 6”.

Data set [1] has as its system mouse dystrophin pre-mRNA. Nature of the data set: Dystrophin nested PCR (Method A) in muscles of mdx mice. The format is in vivo. As to the method: “DMD-ASO 1” and “DMD-ASO 4” were evaluated for their ability to induce exon skipping in muscles of mdx mice by subcutaneous administration as follows. [ASO Treatment & Sampling Muscle Tissues] The injection solutions were prepared by diluting an aqueous mother stock solution of “DMD-ASO 1” or “DMD-ASO 4” in PBS to 500 nM. Male mdx mice were subcutaneously administered with vehicle only (negative control), “DMD-ASO 1” or “DMD-ASO 4” at 2 mL/Kg, 2× per day (BID) for 3 days. One day after the final dose, the animals were anesthetized with zoletil/rompun, and sacrificed to sample muscle tissues including the heart, diaphragm, gatrocnemius, quadriceps, and triceps. [RNA Extraction] Muscle samples were homogenized by grinding in a tube kept on ice, and subjected to total RNA extraction with 1 mL trizol reagent (Invitrogen) per ca 100 mg muscle tissue. [cDNA Synthesis by One-Step RT-PCR] 500 ng of RNA template was used in a 25 μL reverse transcription reaction using Super Script® One-Step RT-PCR kit with Platinum® Taq polymerase (Cat. Number 10928-042, Invitrogen) and a set of exon-specific primers [DMD-exon 21_forward: (5'→3') […] NO: 103); and DMD-exon 25_reverse: (5'→3') […] [Nested PCR Amplification] 1 μL of cDNA was further amplified in a 20 μL nested PCR (Cat. Number K2612, Bioneer) reaction against a set of primers [DMD-exon 22n_forward: (5'→3') […] NO: 105); and DMD-exon 25n_reverse: (5'→3') […] [Identification of Exon Skipping Product] The skipping of exon 23 was detected only in the animals treated with “DMD-ASO 1” and “DMD-ASO 4”. […] Mdx mice subcutaneously received “DMD-ASO 1” at 0 (negative control) or 10 pmole/Kg, 2× per day for 5 days. (2 animals per group) One day after the final dose, the animals were sacrificed for tissue sampling. The triceps samples were evaluated for the skipping of exon 23 according to the nested RT-PCR method described in “DMD Example 1”.

For “Fethoc-A(5)GA-G(6)CC(1O2)-TCA-A(5)AA(5)-T-NH2 (antisense AGAGCCTCAAAAT; Fethoc N-cap, C-terminal amide, chemistry not fully specified) [DMD-ASO 1]”, in the data set on mdx mice (chronic 200 pmole/Kg), the “muscular degeneration and inflammation (H&E)” value is listed as “reversed”. For the same substance, the “severity of the histopathology findings (H&E)” value in the data set with mdx mice (chronic 10 and 50 pmole/Kg) is listed as “weaker than the severity in the mdx negative control, but stronger than that in the 200 pmole/Kg group”. Also, the “serum myoglobin level smaller than the mdx negative control group by” value in the data set on serum myoglobin is reported as 43%. In addition, the “skipping of dystrophin exon 23 (nested PCR Method A)” value in data set [1] (subcutaneous 10 pmole/Kg, 2× per day for 5 days, triceps) was “induced the skipping of exon 23”; in data set [1] (subcutaneous 1,000 pmole/Kg BID for 3 days, quadriceps and gastrocnemius), “detected”.
